Data set [1] addresses T1, TgPDE1 (Toxoplasma gondii, UniProt A0A7J6K721).
T1 construct: gene TGRH88_036470; native smHA-tagged TgPDE1 immunoprecipitated from tachyzoites
Put plainly: colorimetric PDE assay on immunoprecipitated enzyme, dose-response (cAMP hydrolysis; […] for cGMP). It counts as biochemical.

The target in the next data set is T2, TgPDE2 (Toxoplasma gondii, UniProt A0A7J6KGW2).
T2 construct: gene TGRH88_018390; native smHA-tagged TgPDE2 immunoprecipitated from tachyzoites
Put plainly: colorimetric PDE assay, single concentration ([…]), partial inhibition of cAMP hydrolysis. The data set is classed as biochemical.

Data set [2] addresses T1, TgPDE1. Put plainly: colorimetric PDE assay, single concentration ([…]), moderate effect. The data set is classed as biochemical.
The target of data set [3] is T1, TgPDE1. Kind of data set: colorimetric PDE assay on immunoprecipitated enzyme, dose-response (cAMP hydrolysis). The data set is classed as biochemical.
Substrate in data set [4]: [H][C@@]12COP(=O)(O)O[C@@]1([H])[C@@H](O)[C@H](n1cnc3c(=O)[nH]c(N)nc31)O2
Put plainly: Michaelis-Menten kinetics, colorimetric PDE assay (Km). The data set is classed as biochemical, Toxoplasma gondii.

Consider `CC(C)c1n[nH]c2c(=O)[nH]c(Cc3ccccc3)nc12` [BIPPO, 5-benzyl-3-isopropyl-1H-pyrazolo (4,3-d) pyrimidin-7(6H)-one], for which, at TgPDE1 [1], the IC50 was 310 nM.
As for `CC(C)Cn1c(=O)n(C)c(=O)c2[nH]cnc21` [IBMX, 3-isobutyl-1-methylxanthine], on TgPDE2, the “colorimetric PDE assay, single concentration (100 μM), partial inhibition of cAM” value is “hydrolysis of cAMP by TgPDE2 was sensitive to partial inhibition by IBMX but to none of the other drugs”. Besides, the “colorimetric PDE assay, single concentration (100 μM), moderate effect” value at TgPDE1 [2] is listed as “The effect of IBMX on TgPDE1 was moderate”.
`CCCOc1ccccc1-c1nc2nn[nH]c2c(=O)[nH]1` [zaprinast, 1,4-Dihydro-5-(2-propoxyphenyl)-7H-1,2,3-triazolo (4,5-d) pyrimidin-7-one] registered an IC50 on TgPDE1 [3] of 1490 nM.

B1: TgPDE1 (Toxoplasma gondii) (protein)
chain: MRLREHSLLLCVDAMSRDSPVASPAHSGVFGPSADAEVSEVFSLPSLSAVPGAASASSLSRENSLVSSRRASPSVSPPAGSPLWRLVRRCGQGEGERENVERCRLRERREECGAARRGPPASAATSDCSCPSAGDRRRVQSRRRRARTFQGRSFCGNHVSTEAEREGETEGEEETEGEEGREEYDSKRRGRLARRLGRRFVIAAAERGRKREGEETIVLRGNQGECWQEAQRTADSPDCSSSSVCCFGGSCSTASQCCACMRLASVSCPSPRSSFSTFHCSLPAVSSASAAFVCPRESPGSDSNSSPSCASSRGFSPSSPKATVSSSRPSSSSASPLRSSLSAPSGLFPVGSGCSSDVCVSVPLPAMFRGCRVHSSAPSSRTEQGTALLTGAPPSANELEAASAMANPTNSSRFSRVKTVSFATLSECGSSHISRRSDSASEPEAEREKPGLCSMRVARRESSPAARSPGRQSERRGTDSSCTSLPQRSDRAGRDRVGSRGSAEQRSSTSSRRVSDHSRAEAGLWSAGLGDSGASLEPDLESRSAFLRRCRARLAAARRKVCQAFQSLAEHDLVFRMKEDLAQMRHESSLRSVFADGCRERSGVEMSERTRLSVGGGTGRHLSVGTSTHKEGSTHKEGSEKERIRDGGSASPSTHLSRSGSGDVILRRFPLKFVDRGLEDLFADNINRWMATRLLMGVLSLVVTSVMWPLMAWSFNLLDAFNHSEPLGILFHINMAVTVFVAVLFIVTKRCRHLAEHAELIADGGTFLVVTIWGIWNTTASYILEHSYVQDVIGSAYPMHPADAPISLEKTSAWSTSLEASSAVAYLYGLLLIVQLDVVYPSRTRRTWQVHLMFFGFSTASIVIRGALNPDFVPVPFVVIRALTYLMLTVFLFIGRHATELQQRHTFYNWLTTRKRMDRLESDLKRQREKVKVSTAVEQLVHMVKHCMESCQTVESEVGSELHVSYRSLLIDCHQTLSRCLSILTHTSDLYTVQFGDLDSDAHRDIIQAFLNNHNSSPADWTRVTTAAYTRGVEDGCWSASDASSEAKSGDLGTPFAGSEALALVRRDSSHSWASSRGASAWPIQANWTGTLDGVHVHAFLHAVPEACGGAATPEHDGLRGEGLGDLGRASPRRQAGRQLTRLDEGRERDSEPEDLTDDGDSAEPPKNAASETEEKVSVPDNGRKTPTQALGEMKPGLTSKGLHDTLARVRASTHREVESRGRERRGDSAPCSSPSQRLTPQSLADFQARLRYEALIKLVHTSPRTPELSLGIPVSEEAARDWNFDCLRHAQLSPTPLVDVGYALLHRTSEDLRLPPDVVLRFLTAVEIQYNHVPYHNCIHGLMVAQKMVALTEVLELSQSIGSRDRALVVVAGLCHDIGHPGRNNALFINALDPVAVLYNDKSVLENYHSCLTFKTLELPDCDIFFSLRTKDYHMVRSLIIDLILATDMKNHFETVSRFRVRRNALDFDLSSEEDFWFAVKIIMKCADLSHCSVPWSQHFQWCQRLSVEFYDQGDEEVARHLPMSPLCDREKHSEVAKSQLGFMSFVAVPLFEELMAIDGTGNIEKYCISVMKTNASHWEALSSAAVPVPLLGEAPSPDVAPPLLHLIDGSGAAAVHPGSKAAEIANRYASSTVTTLDLTCLVYRTQLNRARRSSQQSGRRVSEGTSA
notes: native smHA-tagged TgPDE1 immunoprecipitated from tachyzoites
With B1, the Km in data set [4] is on record as 18 µM.

The values are drawn from article PMC9619220 (Computational and Structural Biotechnology Journal, 2022).
